From patent US12447242B2, “Hemostatic devices and methods of use” (MEDTRONIC INC., priority 2016, dated 2025)

Experiments:
myofibroblast formation = conditions: Ajmal et al. (2003); cited from earlier work
[1] = in vitro elution of rifampin and minocycline from p22-27.5 polymers with TXA in release media (Example 15); type: physicochemical; conditions: PBS pH 7.4 without or with TXA (0.05 mg/mL, 5 mg/mL) in the release media, over 25 hours
[2] = stability of rifampin and minocycline in PBS with and without tranexamic acid (Example 14); type: physicochemical
blood [3] = test: time to induce blood clotting in vitro, different hemostatic agents (Example 18); type: biochemical; conditions: 1.2 mg of TXA alone
Protocol: Tests were conducted to compare the time required for different hemostatic agents to induce blood clotting in vitro versus the time required to induce blood clotting in vitro when no hemostatic agent is administered. In particular, the time required to induce blood clotting was plotted for blood alone, TYRX, Surgicel, TYRX with 1.6 mg of TXA, 1.2 mg of TXA alone, and TYRX with 200 mg of TXA. In this example, TYRX refers to a Glycoprene mesh that is coated with P22-27.5 (a polymer in the P22-X family) containing Rifampin and Minocycline.

blood [4] = test: time to induce blood clotting in vitro in the presence of TYRX (Example 17); type: biochemical; design: dose or concentration left out as unconfirmed; conditions: higher amounts of TXA
Protocol: Tests were conducted to compare the time required to induce blood clotting in vitro when different amounts of hemostatic agent is administered in the presence of TYRX (degradable mesh coated with P22-27.5 containing rifampin and minocycline), as shown in FIG. 24.

[5] = time to reach plasma concentrations; type: in vivo; conditions: given preoperatively

For `O=S(=O)([O-])CCS.[Na+]` [MESNA, sodium 2-mercaptoethane sulfonate], the myofibroblast formation (myofibroblast formation) is given as “diminish myofibroblast formation”.

With `CO[C@H]1/C=C/O[C@@]2(C)Oc3c(C)c(O)c4c(O)c(c(/C=N/N5CCN(C)CC5)c(O)c4c3C2=O)NC(=O)/C(C)=C\C=C\[C@H](C)[C@H](O)[C@@H](C)[C@@H](O)[C@@H](C)[C@H](OC(C)=O)[C@@H]1C` [rifampin] the “elution rate from p22-27.5 polymers” value [1] was “not affected” and the “percentage area of rifampin, mixtures with versus without tranexamic acid” value ([2]; rifampin and minocycline in PBS, regardless of the temperature (RT or 37° C.)) was “substantially the same”.

For `NC[C@H]1CC[C@H](C(=O)O)CC1` [tranexamic acid], the “time to induce blood clotting in vitro” value (blood [3]) was “about 19 minutes”, the clotting time (blood [4]) was “increased” and the “effect on the stability of rifampin and minocycline” value ([2]; PBS, RT and 37° C.) was “does not negatively affect”. The “time to reach plasma concentrations” value [5] was 5 to 15 min.
